Data set [1] in a line: acid dissociation index (pK1, pK2) at 25° C. The conditions noted are these: for Difference (pK2 - pK1): 25° C., method (D); for first acid dissociation index / second acid dissociation index: for the dibasic acid, source of value not given. Format: physicochemical. The method, then:
The organic dibasic acid used as a deodorant in the present invention is selected from organic dibasic acids and/or salts thereof having a difference between the first acid dissociation index and the second acid dissociation index of 1.7 or more at 25° C. (hereinafter, described as deodorant organic dibasic acid). The acid dissociation index can be measured, for example, by a method (A) described in The Journal of Physical Chemistry vol.
Further, previously obtained data may also be used. […] Further, the organic dibasic acid can be selected based on data bases (D) such as pKa BASE of Compudrug, and the like. The first acid dissociation index and the second acid dissociation index of the organic dibasic acid may be determined by any of the methods (A) to (D).

For data set [2] the following is noted: 25° C.; method (D), data bases such as pKa BASE of Compudrug; cited from earlier work.

This is an account of results in US6780403B1, “Deodorants” (Kao Corporation, priority 1999, dated 2004).

Consider `O=C(O)[C@@H]1CCCCC[C@H]1C(=O)O` (relative stereo) [Trans-1,2-cycloheptanedicarboxylic acid], for which the “Difference (pK2 - pK1)” value in data set [1] turned out to be 1.88. In data set [2], the “First acid dissociation index (pK1)” value is 4.30 and the “Second dissociation index (pK2)” value is given as 6.18.
As to `O=C(O)[C@@H]1CCCC[C@H]1C(=O)O` (relative stereo) [Trans-1,2-cyclohexanedicarboxylic acid], in data set [1], the “Difference (pK2 - pK1)” value is 1.76.
As to `O=C(O)[C@@H]1CCCCCC[C@H]1C(=O)O` (relative stereo) [Trans-1,2-cyclooctanedicarboxylic acid], in data set [1], the “Difference (pK2 - pK1)” value amounted to 1.87. For the same molecule, in data set [2], the “First acid dissociation index (pK1)” value is 4.37 and the “Second dissociation index (pK2)” value is on record as 6.24.
For `O=C(O)[C@@H]1CCC[C@H]1C(=O)O` (relative stereo) [Trans-1,2-cyclopentandicarboxylic acid], the “Difference (pK2 - pK1)” value in data set [1] was 1.85. In data set [2], the “First acid dissociation index (pK1)” value is given as 4.14 and the “Second dissociation index (pK2)” value is 5.99.
Regarding `CCC(CC)(C(=O)O)C(=O)O` [2,2-diethylmalonic acid], the “Difference (pK2 - pK1)” value in data set [1] is given as 5.27. For the same molecule, in data set [2], the “First acid dissociation index (pK1)” value is 2.15 and the “Second dissociation index (pK2)” value is reported as 7.42.
For `CC(C)C(C(=O)O)(C(=O)O)C(C)C` [2,2-diisopropylmalonic acid], the “Difference (pK2 - pK1)” value in data set [1] is listed as 6.73. In data set [2], the “First acid dissociation index (pK1)” value was 2.12 and the “Second dissociation index (pK2)” value was 8.85.
Consider `CC(C)(C(=O)O)C(=O)O` [2,2-dimethylmalonic acid], for which the “Difference (pK2 - pK1)” value in data set [1] is given as 2.70.
In the case of `CCCC(CCC)(C(=O)O)C(=O)O` [2,2-dipropylmalonic acid], in data set [1], the “Difference (pK2 - pK1)” value amounted to 5.32. Further, in data set [2], the “First acid dissociation index (pK1)” value is on record as 1.86 and the “Second dissociation index (pK2)” value is recorded as 7.18.
As for `CC(C)(C)C(C(=O)O)C(C(=O)O)C(C)(C)C` (centres unmarked) [2,3-di-t-butylsuccinic acid], the “Difference (pK2 - pK1)” value in data set [1] came out at 8.06. For the same molecule, in data set [2], the “First acid dissociation index (pK1)” value was 2.20 and the “Second dissociation index (pK2)” value is recorded as 10.26.
Turning to `CCC(C(=O)O)C(CC)C(=O)O` (centres unmarked) [2,3-diethylsuccinic acid], in data set [1], the “Difference (pK2 - pK1)” value is recorded as 2.83. Moreover, in data set [2], the “First acid dissociation index (pK1)” value was 3.63 and the “Second dissociation index (pK2)” value is 6.46.
Turning to `CC(C(=O)O)C(C)C(=O)O` (centres unmarked) [2,3-dimethylsuccinic acid], the “Difference (pK2 - pK1)” value in data set [1] stood at 2.08. For the same molecule, in data set [2], the “First acid dissociation index (pK1)” value is 3.92 and the “Second dissociation index (pK2)” value was 6.00.
Turning to `CCC(CC)C(CC)(CCC(=O)O)C(=O)O` (centres unmarked) [2-ethyl-2-(1-ethylpropyl)glutaric acid], the “Difference (pK2 - pK1)” value in data set [1] is reported as 5.16. In addition, in data set [2], the “First acid dissociation index (pK1)” value is on record as 2.15 and the “Second dissociation index (pK2)” value is on record as 7.31.
Take `CCC(C(=O)O)(C(=O)O)C(C)C` [2-ethyl-2-isopropylmalonic acid]: the “Difference (pK2 - pK1)” value in data set [1] turned out to be 6.07. Also, in data set [2], the “First acid dissociation index (pK1)” value is on record as 2.03 and the “Second dissociation index (pK2)” value was 8.10.
In the case of `CCC(C)(C(=O)O)C(=O)O` [2-ethyl-2-methylmalonic acid], the “Difference (pK2 - pK1)” value in data set [1] was found to be 4.35. Besides, in data set [2], the “First acid dissociation index (pK1)” value was 2.20 and the “Second dissociation index (pK2)” value is given as 6.55.
With `CCC(C(=O)O)C(C)C(=O)O` (centres unmarked) [2-ethyl-3-methylsuccinic acid], the “Difference (pK2 - pK1)” value in data set [1] is reported as 2.90. In data set [2], the “First acid dissociation index (pK1)” value is reported as 3.20 and the “Second dissociation index (pK2)” value was 6.10.
For the molecule `CCC(C(=O)O)C(=O)O` [2-ethylmalonic acid], in data set [1], the “Difference (pK2 - pK1)” value was 2.85. Besides, in data set [2], the “First acid dissociation index (pK1)” value was 2.96 and the “Second dissociation index (pK2)” value was 5.81.
In the case of `CC(C)C(C(=O)O)C(=O)O` [2-isopropylmalonic acid], in data set [1], the “Difference (pK2 - pK1)” value is reported as 2.96. Further, in data set [2], the “First acid dissociation index (pK1)” value is 2.92 and the “Second dissociation index (pK2)” value is given as 5.88.
As for `CC1CCCCC1(CC(=O)O)CC(=O)O` (centres unmarked) [2-methylcyclohexyl-1,1-diacetic acid], in data set [1], the “Difference (pK2 - pK1)” value is recorded as 3.36. For the same molecule, in data set [2], the “First acid dissociation index (pK1)” value is given as 3.53 and the “Second dissociation index (pK2)” value is recorded as 6.89.
As for `CC(C(=O)O)C(=O)O` [2-methylmalonic acid], the “Difference (pK2 - pK1)” value in data set [1] is 2.71. Besides, in data set [2], the “First acid dissociation index (pK1)” value is 3.05 and the “Second dissociation index (pK2)” value is 5.76.
Consider `CC(C)(C)C(C(=O)O)C(=O)O` [2-t-butylmalonic acid], for which the “Difference (pK2 - pK1)” value in data set [1] is on record as 4.12. In data set [2], the “First acid dissociation index (pK1)” value was 2.92 and the “Second dissociation index (pK2)” value is reported as 7.04.
Take `CCC(CC)(CC(=O)O)CC(=O)O` [3,3-diethylglutaric acid]: in data set [1], the “Difference (pK2 - pK1)” value was found to be 3.75. Also, in data set [2], the “First acid dissociation index (pK1)” value is on record as 3.67 and the “Second dissociation index (pK2)” value is given as 7.42.
Regarding `CC(C)C(CC(=O)O)(CC(=O)O)C(C)C` [3,3-diisopropylglutaric acid], the “Difference (pK2 - pK1)” value in data set [1] came out at 4.05. Also, in data set [2], the “First acid dissociation index (pK1)” value is on record as 3.65 and the “Second dissociation index (pK2)” value is reported as 7.68.
Consider `CC1(C)[C@H](C(=O)O)[C@@H]1C(=O)O` [3,3-dimethyl-cis-1,2-cyclopropanedicarboxylic acid], for which the “Difference (pK2 - pK1)” value in data set [1] is 5.56. For the same molecule, in data set [2], the “First acid dissociation index (pK1)” value is recorded as 2.61 and the “Second dissociation index (pK2)” value was 8.17.
For `CC(C)(CC(=O)O)CC(=O)O` [3,3-dimethylglutaric acid], the “Difference (pK2 - pK1)” value in data set [1] amounted to 2.60. Moreover, in data set [2], the “First acid dissociation index (pK1)” value was 3.85 and the “Second dissociation index (pK2)” value is 6.45.
As for `O=C(O)CC(CC(=O)O)(c1ccccc1)c1ccccc1` [3,3-diphenylglutaric acid], the “Difference (pK2 - pK1)” value in data set [1] stood at 2.79. In data set [2], the “First acid dissociation index (pK1)” value was 4.02 and the “Second dissociation index (pK2)” value is listed as 6.81.
With `CCCC(CCC)(CC(=O)O)CC(=O)O` [3,3-dipropylglutaric acid], the “Difference (pK2 - pK1)” value in data set [1] is 3.83. Further, in data set [2], the “First acid dissociation index (pK1)” value was 3.65 and the “Second dissociation index (pK2)” value is recorded as 7.48.
Take `CCC(CC(=O)O)(CC(=O)O)c1ccccc1` [3-ethyl-3-phenylglutaric acid]: the “Difference (pK2 - pK1)” value in data set [1] is 3.06. Besides, in data set [2], the “First acid dissociation index (pK1)” value is 3.89 and the “Second dissociation index (pK2)” value was 6.95.
For `CC(C)C(C)(CC(=O)O)CC(=O)O` [3-isopropyl-3-methylglutaric acid], in data set [1], the “Difference (pK2 - pK1)” value worked out at 3.14. In data set [2], the “First acid dissociation index (pK1)” value was 3.78 and the “Second dissociation index (pK2)” value is recorded as 6.92.
In the case of `O=C(O)[C@H]1CCCC[C@H]1C(=O)O` [Cis-1,2-cyclohexanedicarboxylic acid], the “Difference (pK2 - pK1)” value in data set [1] was found to be 2.49.
`O=C(O)/C=C\C(=O)O` [Maleic acid]: the “Difference (pK2 - pK1)” value in data set [1] is given as 4.08.
“alkenylsuccinic acid carrying an alkenyl group having 12 carbon atoms [a-3]”: in data set [1], the “first acid dissociation index” value was 4.06 and the “second acid dissociation index” value is recorded as 6.01.
For “alkenylsuccinic acid carrying an alkenyl group having 14 carbon atoms [a-4]” the same measures were 4.01 and 6.12.
